Experimental data published in patent publication US20250135020A1, “METHODS FOR TREATING NON-MUSCLE INVASIVE BLADDER CANCER (NMIBC) WITH ANTIBODY DRUG CONJUGATES (ADC) THAT BIND TO 191P4D12 PROTEINS” (priority 2021, published 2025).
Non-standard residues stand in square brackets, D forms with d. Residues, ends and D or L forms follow the SMILES beside them. *: point of attachment. Dolaproine = CO[C@@H]([C@@H]1CCCN1)[C@@H](C)C(=O)O; Dil = CC[C@H](C)[C@H](NC)[C@@H](CC(=O)O)OC; X1 = C[C@@H](N*)[C@@H](O)c1ccccc1; NMeV = CN[C@H](C(=O)O)C(C)C

System: Nectin-4 overexpressing bladder carcinoma cells (UM-UC-3-hNectin-4+)
Test: In vitro cytotoxic activity under conditions that mimic intravesical dosing (Cell TiterGlo)
Format: cell-based, human
Conditions: UM-UC-3-hNectin-4+ cells; 2 h exposure then wash out vs 96 h; cell death by Cell TiterGlo
Method: To assess cytotoxic activity of EV in vitro under conditions that mimic intravesical dosing, Nectin-4 overexpressing bladder carcinoma cells (UM-UC-3-hNectin-4^+) were exposed to either EV, unconjugated anti-Nectin-4 antibody, unconjugated MMAE, or control ADC (FIG. 2). IV dosing was modeled by exposing the cells for 96 hours. Intravesical dosing was modeled with exposures of 2 and 24 hours followed by test article wash out. Cell death was measured using Cell TiterGlo® (Promega Corporation, Madison, WI, USA).

CC[C@H](C)[C@@H]([C@@H](CC(=O)N1CCC[C@H]1[C@H](OC)[C@@H](C)C(=O)N[C@H](C)[C@@H](O)c1ccccc1)OC)N(C)C(=O)[C@@H](NC(=O)[C@@H](NC)C(C)C)C(C)C [unconjugated MMAE, monomethyl auristatin E] (H-[NMeV]V[Dil][Dolaproine]-X1)
Decrease in potency (EC90) on decreasing the exposure from 96 to 2 hours: 44 fold
